Measured values reported in article PMC10449633 (Nature Chemical Biology, 2023).
“And” between values parts separate entries of the source, which are not always exact repeats. Equal entries are not always repeated. Where two headings read alike, the source gives them in different places. Square brackets hold non-standard residues; d marks the D form. Peptide text beside a SMILES is read from it. NMeTrp(1-(4-Br-benzyl)) = CN[C@@H](Cc1cn(Cc2ccc(Br)cc2)c2ccccc12)C(=O)O; Butanoyl(2R-oxy,4-CN) = N#CCC[C@@H](O)C(=O)O; Abu(4,4,4-F3) = N[C@@H](CC(F)(F)F)C(=O)O; NMeL = CN[C@@H](CC(C)C)C(=O)O; NMeA = CN[C@@H](C)C(=O)O

Legend:
Sec61 [1] = molecular target: T1, Sec61 (Homo sapiens, UniProt P61619); assay: cell-based
T1 construct: endogenous in cells
Target sequence in this assay (P60059 whole entry): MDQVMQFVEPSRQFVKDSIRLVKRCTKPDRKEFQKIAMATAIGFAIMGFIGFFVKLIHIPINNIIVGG
Target sequence in this assay (P61619 whole entry): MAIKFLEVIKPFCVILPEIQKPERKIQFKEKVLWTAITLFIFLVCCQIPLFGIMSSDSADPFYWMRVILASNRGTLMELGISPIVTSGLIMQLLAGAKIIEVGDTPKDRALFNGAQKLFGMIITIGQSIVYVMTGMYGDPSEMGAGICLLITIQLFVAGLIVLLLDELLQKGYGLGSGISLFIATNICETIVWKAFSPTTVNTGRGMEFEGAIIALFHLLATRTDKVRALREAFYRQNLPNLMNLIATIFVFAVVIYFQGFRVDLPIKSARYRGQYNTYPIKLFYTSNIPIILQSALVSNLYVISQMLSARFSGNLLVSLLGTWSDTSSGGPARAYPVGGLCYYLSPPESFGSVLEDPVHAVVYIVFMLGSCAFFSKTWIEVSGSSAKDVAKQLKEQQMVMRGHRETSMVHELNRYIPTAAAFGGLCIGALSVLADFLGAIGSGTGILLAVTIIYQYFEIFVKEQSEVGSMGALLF
Target sequence in this assay (P60468 whole entry, further chain): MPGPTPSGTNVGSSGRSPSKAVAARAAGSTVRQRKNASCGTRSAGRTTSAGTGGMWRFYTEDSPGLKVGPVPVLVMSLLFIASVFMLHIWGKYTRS

Sec61 [2] = molecular target: T1, Sec61; assay: signal peptide-GLuc (SP-GLuc) reporter panel, 89 constructs; format: cell-based; settings: read-out: IC50
Text: The heat map depicts IC50 values calculated from each SP-GLuc dose–response curve. d, Arthritis was induced in BALB/c mice with antibodies specific for type II collagen (mAb) on day 0 and endotoxin on day 3. On day 4, when the disease was present in all animals, mice were randomized and treated for 2 weeks with thrice weekly (QODx3) or weekly (QW) intravenous administration of vehicle or KZR-8445 or intraperitoneal administration of dexamethasone. Clinical scores (0–4 per paw; n = 10 per group) and body weights were followed until day 14. Data are presented as mean values ± s.d. mAb, monoclonal antibody. Source data
To investigate the effects of KZR-8445 on secretory and membrane protein biogenesis and to establish Sec61α as the relevant target, we quantified the secretion of a doxycycline-inducible Gaussia luciferase (GLuc) reporter fused to the C-terminus of two full-length pro-inflammatory cytokines, interleukin-2 (IL-2) (which contains a cleavable signal peptide) and tumor necrosis factor-alpha (TNFα) (which contains an N-terminal transmembrane anchor). […] KZR-8445 is structurally related to CT8, which discriminates among Sec61 clients based largely on their N-terminal signal peptide. […] We also directly compared KZR-8445 to mycolactone A/B, a structurally distinct and relatively client-nonselective Sec61 inhibitor[8],[25], for their ability to discriminate between vascular cell adhesion molecule (VCAM) and preprolactin (pPL) signal peptides.
Target sequence in this assay (P61619 whole entry): as the sequence (P61619 whole entry) above
Target sequence in this assay (P60059 whole entry, further chain): as the sequence (P60059 whole entry) above
Target sequence in this assay (P60468 whole entry, further chain): as the sequence (P60468 whole entry, further chain) above

SMILES: CC(C)C[C@@H]1NC(=O)[C@H](Cc2cn(Cc3ccc(Br)cc3)c3ccccc23)N(C)C(=O)[C@H](CC(F)(F)F)NC(=O)[C@H](CC(C)C)N(C)C(=O)[C@H](CC(F)(F)F)NC(=O)[C@@H](CCC#N)OC(=O)[C@H](C)N(C)C1=O [KZR-0508445] (cyclo(L[NMeA][Butanoyl(2R-oxy,4-CN)][Abu(4,4,4-F3)][NMeL][Abu(4,4,4-F3)][NMeTrp(1-(4-Br-benzyl))]))
- GLuc reporter raw signal (replicates) (Sec61 [1]; HER3, Concentration 0.32): 2935000 and 2941500 and 3013900
- GLuc reporter raw signal (replicates) (Sec61 [1]; HER3, Concentration 8): 2659500 and 2842600
- GLuc reporter raw signal (replicates) (Sec61 [1]; HER3, Concentration 40): 1960600 and 2026300 and 1990500
- GLuc reporter raw signal (replicates) (Sec61 [1]; HER3, Concentration 200): 739710 and 740510 and 713180
- GLuc reporter raw signal (replicates) (Sec61 [1]; HER3, Concentration 1000): 117630 and 116630 and 119290
- GLuc reporter raw signal (replicates) (Sec61 [1]; HER3, Concentration 5000): 40623 and 42704 and 41387
- GLuc reporter raw signal (replicates) (Sec61 [1]; HER3, Concentration 25000): 40492 and 42302 and 41156
- GLuc reporter raw signal (replicates) (Sec61 [1]; IL2, Concentration 0.32): 2694100 and 2451600 and 2682900
- GLuc reporter raw signal (replicates) (Sec61 [1]; IL2, Concentration 8): 2155800 and 2012200 and 2217000
- GLuc reporter raw signal (replicates) (Sec61 [1]; IL2, Concentration 40): 1384000 and 1357800 and 1362400
- GLuc reporter raw signal (replicates) (Sec61 [1]; IL2, Concentration 200): 418080 and 431560 and 427460
- GLuc reporter raw signal (replicates) (Sec61 [1]; IL2, Concentration 1000): 69620 and 75099 and 80209
- GLuc reporter raw signal (replicates) (Sec61 [1]; IL2, Concentration 5000): 24453 and 26590 and 27282
- GLuc reporter raw signal (replicates) (Sec61 [1]; IL2, Concentration 25000): 27001 and 26299 and 26941
- GLuc reporter raw signal (replicates) (Sec61 [1]; PD1, Concentration 0.32): 1085300 and 1145000 and 1139600
- GLuc reporter raw signal (replicates) (Sec61 [1]; PD1, Concentration 8): 871620 and 904180 and 884200
- GLuc reporter raw signal (replicates) (Sec61 [1]; PD1, Concentration 40): 505580 and 506170 and 515230
- GLuc reporter raw signal (replicates) (Sec61 [1]; PD1, Concentration 200): 149930 and 159870 and 181940
- GLuc reporter raw signal (replicates) (Sec61 [1]; PD1, Concentration 1000): 25647 and 33346 and 33065
- GLuc reporter raw signal (replicates) (Sec61 [1]; PD1, Concentration 5000): 10483 and 12045 and 12165
- GLuc reporter raw signal (replicates) (Sec61 [1]; PD1, Concentration 25000): 10613 and 11144 and 10202
- GLuc reporter raw signal (replicates) (Sec61 [1]; Prolactin, Concentration 0.32): 9123600 and 9441100 and 9520300
- GLuc reporter raw signal (replicates) (Sec61 [1]; Prolactin, Concentration 40): 8673700 and 8850000 and 8412700
- GLuc reporter raw signal (replicates) (Sec61 [1]; Prolactin, Concentration 200): 7415400 and 7981400 and 8354800
- GLuc reporter raw signal (replicates) (Sec61 [1]; Prolactin, Concentration 1000): 4269000 and 4043400 and 4397300
- GLuc reporter raw signal (replicates) (Sec61 [1]; Prolactin, Concentration 5000): 1501600 and 1605300 and 3990200
- GLuc reporter raw signal (replicates) (Sec61 [1]; Prolactin, Concentration 25000): 1205700 and 1279300 and 1375600
- GLuc reporter raw signal (replicates) (Sec61 [1]; TNFa, Concentration 0.32): 190530 and 188640 and 185180
- GLuc reporter raw signal (replicates) (Sec61 [1]; TNFa, Concentration 8): 168690 and 159800
- GLuc reporter raw signal (replicates) (Sec61 [1]; TNFa, Concentration 40): 128960 and 129480 and 142690
- GLuc reporter raw signal (replicates) (Sec61 [1]; TNFa, Concentration 200): 58379 and 60837 and 65010
- GLuc reporter raw signal (replicates) (Sec61 [1]; TNFa, Concentration 1000): 21193 and 19058 and 21945
- GLuc reporter raw signal (replicates) (Sec61 [1]; TNFa, Concentration 5000): 10351 and 10241 and 10171
- GLuc reporter raw signal (replicates) (Sec61 [1]; TNFa, Concentration 25000): 9540 and 9711 and 9400
- IC50 (Sec61 [2]; ADPGK signal peptide-GLuc reporter): 540 nM
- IC50 (Sec61 [2]; ANGPTL3 signal peptide-GLuc reporter): 49.4 nM
- IC50 (Sec61 [2]; APOC1 signal peptide-GLuc reporter): 135 nM
- IC50 (Sec61 [2]; APP signal peptide-GLuc reporter): 449 nM
- IC50 (Sec61 [2]; AXL signal peptide-GLuc reporter): 13.8 nM
- IC50 (Sec61 [2]; BCAN signal peptide-GLuc reporter): 142 nM
- IC50 (Sec61 [2]; C1S signal peptide-GLuc reporter): 383 nM
- IC50 (Sec61 [2]; CALCA signal peptide-GLuc reporter): 721 nM
- IC50 (Sec61 [2]; CALCB signal peptide-GLuc reporter): 972 nM
- IC50 (Sec61 [2]; CD40 signal peptide-GLuc reporter): 11300 nM
- IC50 (Sec61 [2]; CD47 signal peptide-GLuc reporter): 373 nM
- IC50 (Sec61 [2]; CD96 signal peptide-GLuc reporter): 29.2 nM
- IC50 (Sec61 [2]; CD274 signal peptide-GLuc reporter): 93.3 nM
- IC50 (Sec61 [2]; CDH1 signal peptide-GLuc reporter): 811 nM
- IC50 (Sec61 [2]; CDH2 signal peptide-GLuc reporter): 15.5 nM
- IC50 (Sec61 [2]; CDH5 signal peptide-GLuc reporter): 76 nM
- IC50 (Sec61 [2]; CNPY2 signal peptide-GLuc reporter): 394 nM
- IC50 (Sec61 [2]; CPD signal peptide-GLuc reporter): 694 nM
- IC50 (Sec61 [2]; CR1L signal peptide-GLuc reporter): 61.3 nM
- IC50 (Sec61 [2]; CSF2RB signal peptide-GLuc reporter): 652 nM
- IC50 (Sec61 [2]; CTLA4 signal peptide-GLuc reporter): 343 nM
- IC50 (Sec61 [2]; DDRGK1 signal peptide-GLuc reporter): 1850 nM
- IC50 (Sec61 [2]; DMKN signal peptide-GLuc reporter): 2630 nM
- IC50 (Sec61 [2]; DNAJB11 signal peptide-GLuc reporter): 4360 nM
- IC50 (Sec61 [2]; ERBB2 signal peptide-GLuc reporter): 536 nM
